Source: ChEMBL document CHEMBL1201862, “PubChem BioAssay data set” (2004)
Activity calls are given as the source filed them.

Tests used:
[1] = inhibition of ARNT PAS-B/TACC3 complex formation – biochemical, AlphaScreen, cherry-picked samples, confirmation (AID 651703); type: functional, Homo sapiens;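 note: His-tagged ARNT PAS-B domain paired with GST-TACC3 E629A dimer coactivator fragment; potency of inhibitors that break up the complex and lower AlphaScreen signal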
[2] = Luminescence Cell-Based Dose Confirmation HTS to Identify Activators of 5'UTR Stem-Loop Driven Alpha-Synuclein mRNA Translation in H4 Neuroglioblastoma Cells. [Related pubchem assays: 1829 (Project Summary), 1814 (Primary HTS)]; type: functional
[3] = Luminescence Cell-Based Dose Response HTS to Identify Activators of Luciferase Translation or Activity in H4 […] Cells. [Related pubchem assays: 1829 (Project Summary), 1814 (Primary HTS)]; type: functional
[4] = test system: H4; test: Luminescence Cell-Based Dose Response HTS to Identify Activators of 5'UTR Stem-Loop Driven Prion Protein mRNA Translation in H4 Neuroglioblastoma Cells. [Related pubchem assays: 1829 (Project Summary), 1814 (Primary HTS)]; type: functional; settings: Homo sapiens
[5] = test system: CHO-K1; test: (§1) Counterscreen for antagonists of the orexin 1 receptor (OX1R; HCRTR1): Homogeneous time resolved fluorescence (HTRF)-based cell-based dose response assay to identify antagonists of the parental CHO-K1 cell line. [Related pubchem assays (depositor defined):AID434989, AID435008, AID463079, AID485270, AID492963, AID492964, AID492965, AID493232, AID504699, AID504701]; type: functional; settings: Cricetulus griseus
[6] = as §1, with “Fluorescence-based” for “Homogeneous time resolved fluorescence (HTRF)-based”, “cell-based high throughput” for “cell-based”, “CHO” for “CHO-K1”; type: functional
[7] = biological target: T1, Orexin/Hypocretin receptor type 1 (Homo sapiens, UniProt O43613); test: Homogeneous Time Resolved Fluorescence (HTRF)-based cell-based high throughput dose response assay for antagonists of the orexin 1 receptor (OX1R; HCRTR1). [Related pubchem assays (depositor defined):AID434989, AID435008, AID463079, AID485270, AID492963, AID492964, AID492965, AID493232, AID504717, AID504718]; type: functional
T1 sequence (O43613 whole entry): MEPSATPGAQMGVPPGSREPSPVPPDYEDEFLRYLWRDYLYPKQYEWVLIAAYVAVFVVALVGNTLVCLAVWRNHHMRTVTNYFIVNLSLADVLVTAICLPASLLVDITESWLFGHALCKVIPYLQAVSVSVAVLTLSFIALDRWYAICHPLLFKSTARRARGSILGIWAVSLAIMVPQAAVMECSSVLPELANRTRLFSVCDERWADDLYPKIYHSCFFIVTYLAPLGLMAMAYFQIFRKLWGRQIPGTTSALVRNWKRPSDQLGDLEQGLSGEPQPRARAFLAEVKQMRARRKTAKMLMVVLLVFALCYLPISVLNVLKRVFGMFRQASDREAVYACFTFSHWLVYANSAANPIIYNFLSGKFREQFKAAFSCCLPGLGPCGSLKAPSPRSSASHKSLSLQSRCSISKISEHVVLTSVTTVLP

[8] = biological target: T1, Orexin/Hypocretin receptor type 1; test: Fluorescence-based cell-based high throughput dose response assay for antagonists of the orexin 1 receptor (OX1R; HCRTR1). [Related pubchem assays (depositor defined):AID434989, AID435008, AID463079, AID485270, AID492963, AID492964, AID492965, AID493232, AID504717, AID504718]; type: functional
[9] = biological target: T2, Orexin receptor type 2 (Homo sapiens, UniProt O43614); test: Counterscreen assay for antagonists of the orexin 1 receptor (OX1R; HCRTR1): Fluorescence-based cell-based dose response assay for antagonists of the orexin 2 receptor (OX2R; HCRTR2), run by assay provider.; type: functional
T2 sequence (O43614 whole entry): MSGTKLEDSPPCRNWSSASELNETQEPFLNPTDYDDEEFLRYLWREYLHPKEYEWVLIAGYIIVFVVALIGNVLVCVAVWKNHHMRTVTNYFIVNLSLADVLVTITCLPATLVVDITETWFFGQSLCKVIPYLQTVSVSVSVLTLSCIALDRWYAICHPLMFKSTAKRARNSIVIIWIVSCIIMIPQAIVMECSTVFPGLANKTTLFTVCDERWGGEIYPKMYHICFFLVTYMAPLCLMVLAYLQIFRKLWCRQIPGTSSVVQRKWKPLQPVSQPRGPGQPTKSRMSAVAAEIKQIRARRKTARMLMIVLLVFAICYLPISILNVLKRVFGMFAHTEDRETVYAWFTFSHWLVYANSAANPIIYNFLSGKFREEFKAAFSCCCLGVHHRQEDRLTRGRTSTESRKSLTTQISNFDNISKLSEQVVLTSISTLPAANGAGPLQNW

[10] = biological target: T2, Orexin receptor type 2; test: Counterscreen assay for antagonists of the orexin 1 receptor (OX1R; HCRTR1): Homogeneous Time Resolved Fluorescence (HTRF)-based cell-based dose response assay for antagonists of the orexin 2 receptor (OX2R; HCRTR2), run by assay provider.; type: functional
[11] = biological target: Serine/threonine-protein kinase pim-1 (Homo sapiens, UniProt P11309); type: functional
Serine/threonine-protein kinase pim-1, sequence (P11309 whole entry): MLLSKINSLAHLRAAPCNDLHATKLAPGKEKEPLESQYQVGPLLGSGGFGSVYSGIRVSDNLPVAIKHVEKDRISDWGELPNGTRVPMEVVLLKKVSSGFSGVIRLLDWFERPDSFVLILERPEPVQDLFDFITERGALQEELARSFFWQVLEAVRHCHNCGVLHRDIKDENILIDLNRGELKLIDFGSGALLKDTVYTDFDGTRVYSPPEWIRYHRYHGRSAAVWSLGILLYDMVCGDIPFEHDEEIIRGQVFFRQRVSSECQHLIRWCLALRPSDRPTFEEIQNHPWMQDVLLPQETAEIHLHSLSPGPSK

[12] = biological target: T3, Heat shock factor protein 1 (Mus musculus, UniProt P38532); test: enhancement of HSF1-driven luciferase signal – cell-based, NIH3T3, luminescence, dose retest, confirmation (AID 435004); type: functional;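 note: stress induced by proteasome inhibitor MG132 added 30 min after compound; luciferase reporter driven by HSF1 response element in NIH3T3 cells; actives raise luminescence as potentiators of the MG132 stress response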
T3 sequence (P38532 whole entry): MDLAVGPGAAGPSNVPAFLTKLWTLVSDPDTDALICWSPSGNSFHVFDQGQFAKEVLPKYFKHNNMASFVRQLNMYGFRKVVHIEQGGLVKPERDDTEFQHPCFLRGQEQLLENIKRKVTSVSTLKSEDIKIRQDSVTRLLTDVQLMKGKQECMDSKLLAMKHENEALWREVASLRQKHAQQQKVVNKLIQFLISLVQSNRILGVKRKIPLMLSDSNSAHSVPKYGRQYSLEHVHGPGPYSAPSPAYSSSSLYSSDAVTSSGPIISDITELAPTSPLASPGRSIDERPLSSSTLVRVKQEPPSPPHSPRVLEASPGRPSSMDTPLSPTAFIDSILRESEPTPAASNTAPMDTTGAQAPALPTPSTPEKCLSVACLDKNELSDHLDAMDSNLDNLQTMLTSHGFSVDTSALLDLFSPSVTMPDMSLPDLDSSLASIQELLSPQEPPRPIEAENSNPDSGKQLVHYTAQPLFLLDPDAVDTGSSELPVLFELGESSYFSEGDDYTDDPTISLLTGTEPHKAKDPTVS

[13] = biological target: T4, Microphthalmia-associated transcription factor (Homo sapiens, UniProt O75030); test: reducers of TRPM1 reporter luminescence, concentration series – cell-based, SK-MEL-5, cherry-picked, set 3, MITF inhibitor project, dose response (AID 493073); type: functional;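 note: SK-MEL-5 melanoma cells with luciferase driven by the MITF target TRPM1 promoter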
T4 sequence (O75030 whole entry): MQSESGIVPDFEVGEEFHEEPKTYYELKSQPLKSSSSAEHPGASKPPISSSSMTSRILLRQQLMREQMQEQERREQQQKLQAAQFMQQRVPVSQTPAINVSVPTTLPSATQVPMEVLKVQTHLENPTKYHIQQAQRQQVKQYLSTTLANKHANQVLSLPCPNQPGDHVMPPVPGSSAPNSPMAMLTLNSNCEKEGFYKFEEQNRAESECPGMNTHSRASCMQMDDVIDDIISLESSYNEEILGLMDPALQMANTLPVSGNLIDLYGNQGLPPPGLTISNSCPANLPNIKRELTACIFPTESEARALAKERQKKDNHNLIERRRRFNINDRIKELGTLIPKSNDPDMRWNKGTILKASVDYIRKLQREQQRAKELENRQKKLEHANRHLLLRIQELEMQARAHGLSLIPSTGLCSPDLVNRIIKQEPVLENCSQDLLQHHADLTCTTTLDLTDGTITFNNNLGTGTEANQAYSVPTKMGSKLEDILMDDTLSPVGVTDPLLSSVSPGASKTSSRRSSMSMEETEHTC

[14] = test system: INS1; test: INS-1E survival protection against cytokine death – cell-based, luminescence, retest, dose response (AID 449756); type: functional; settings: Rattus norvegicus;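 note: cell death triggered by IL-1 beta plus TNF-alpha plus IFN-gamma mixture; protective hits raise ATP signal compared with cytokine alone wells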
[15] = biological target: Mitochondrial peptide methionine sulfoxide reductase (Bos taurus, UniProt P54149); test: Absorbance-based biochemical high throughput dose response assay for activators of Methionine sulfoxide reductase A (MsrA).; type: functional
Mitochondrial peptide methionine sulfoxide reductase, sequence (P54149 whole entry): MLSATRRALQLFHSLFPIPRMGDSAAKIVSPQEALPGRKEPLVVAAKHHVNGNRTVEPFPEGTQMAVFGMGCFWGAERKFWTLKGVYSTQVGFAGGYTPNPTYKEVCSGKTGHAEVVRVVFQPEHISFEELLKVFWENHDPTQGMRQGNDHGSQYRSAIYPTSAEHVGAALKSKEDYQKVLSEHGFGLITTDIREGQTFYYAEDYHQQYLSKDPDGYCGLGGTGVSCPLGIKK

[16] = biological target: Protein Wnt-3a (Mus musculus, UniProt P27467); test: antagonism of Wnt3a pathway luciferase reporter – Wnt-LIGHT cells, luminescence, selectivity assay for Gli-SUFU antagonist project, dose response (AID 651570); type: functional; settings: read-out: IC50_Mean;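 note: Wnt-LIGHT reporter cells stimulated with conditioned medium from Wnt3a-producing cells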
Protein Wnt-3a, sequence (P27467 whole entry, the tested form may be a part): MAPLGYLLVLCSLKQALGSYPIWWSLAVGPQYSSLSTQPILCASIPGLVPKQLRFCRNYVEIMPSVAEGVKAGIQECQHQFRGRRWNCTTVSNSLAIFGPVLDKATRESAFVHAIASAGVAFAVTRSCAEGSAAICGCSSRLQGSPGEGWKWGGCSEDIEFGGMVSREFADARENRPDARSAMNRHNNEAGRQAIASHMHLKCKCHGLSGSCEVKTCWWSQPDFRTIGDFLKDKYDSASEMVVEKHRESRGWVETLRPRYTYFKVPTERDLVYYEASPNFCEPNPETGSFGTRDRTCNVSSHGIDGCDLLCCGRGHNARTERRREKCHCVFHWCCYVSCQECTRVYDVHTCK

[17] = biological target: Hepatocyte nuclear factor 4-alpha (Homo sapiens, UniProt P41235); type: functional, cell-based;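 note: biochemical luminescence-based dose-response counterscreen measuring inhibition of HNF4 dimerization, run alongside a screen for blockers of ABHD5–perilipin-5 interaction; split luciferase complementation of HNF4 fusion proteins in cell lysate measuring dimerization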
Hepatocyte nuclear factor 4-alpha, sequence (P41235 whole entry, the tested form may be a part): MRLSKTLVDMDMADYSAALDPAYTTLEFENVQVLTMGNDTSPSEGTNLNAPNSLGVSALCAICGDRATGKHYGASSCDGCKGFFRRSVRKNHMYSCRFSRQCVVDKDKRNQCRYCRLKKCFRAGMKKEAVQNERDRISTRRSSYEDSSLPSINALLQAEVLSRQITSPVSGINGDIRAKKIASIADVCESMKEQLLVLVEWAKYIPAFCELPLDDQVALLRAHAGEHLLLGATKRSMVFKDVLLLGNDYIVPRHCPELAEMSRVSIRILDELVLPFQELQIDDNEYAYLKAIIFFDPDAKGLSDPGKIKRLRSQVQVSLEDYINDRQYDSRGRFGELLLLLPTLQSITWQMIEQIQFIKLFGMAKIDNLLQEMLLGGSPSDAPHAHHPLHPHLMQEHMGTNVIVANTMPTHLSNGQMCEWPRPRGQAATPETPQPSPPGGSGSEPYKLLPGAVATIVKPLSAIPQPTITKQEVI

With `COc1cccc(CNC(=O)COC(=O)c2ccc(C(=O)c3ccccc3)cc2)c1` the AC50 [1] was 79.3 µM (active).

In the case of `CSc1nc2ccc3nc(NC(=O)c4ccccc4)sc3c2s1`, the EC50 [2] was 43.8 µM (active), the EC50 [3] was 38.3 µM (active) and the EC50 [4] was > 120 µM (not active). For the same molecule, the IC50 [5] was > 66.2 µM (inactive), the IC50 [6] was > 49.7 µM (inactive) and the IC50 [7] was 1.13 µM (active). The IC50 [8] was 2.05 µM (active), the IC50 [9] was > 88.8 µM (inactive) and the IC50 [10] was > 50 µM (inactive).

In the case of `Cc1cc(=O)n2[nH]cc(C(=O)NCc3ccccc3)c2n1`, the Ki [11] was 3.98 µM (active).

In the case of `CCN(CC)c1ccc(NC(=O)c2cc3ccccc3o2)c(C)c1`, the IC50 [5] was > 66.2 µM (inactive), the IC50 [6] was > 49.8 µM (inactive) and the IC50 [7] was 2.43 µM (active). The IC50 [8] was > 49.8 µM (inactive), the IC50 [9] was > 88.8 µM (inactive) and the IC50 [10] was > 50 µM (inactive).

In the case of `Nc1nc2ccccc2n1/N=C/c1ccc([N+](=O)[O-])s1`, the EC50 [12] was 4.39 µM (active), the AC50 [13] was 2.81 µM (active) and the AC50 [14] was 4.11 µM (active). For the same molecule, the EC50 [15] was > 104 µM (inactive) and the IC50 [16] was 15.3 µM (active).

For `COC(=O)c1cc(=O)n(Cc2ccco2)/c(=N/c2ccc(F)cc2)s1`, the IC50 [17] was 5.67 µM (active).
